Measured values taken from patent publication US20250368649A1, “TETRAHYDROPYRIDOPYRIMIDINE PAN-KRAS INHIBITORS” (Mirati Therapeutics, Inc., priority 2022, published 2025).

Experiments:
KRas G12D = KRas G12D (Homo sapiens, UniProt P01116, G12D); assay: biochemical; conditions: Binding to KRas (IC50 nM) G12D, TR-FRET displacement, KRas G12D
HCT116 cells = assay: Inhibition of KRas-mediated phosphorylation of ERK (Cisbio HTRF pERK), HCT116 cells; type: cell-based; conditions: Homo sapiens, HCT-116, 3 h, 3 hr compound incubation
ASPC1 cells = assay: Inhibition of KRas-mediated phosphorylation of ERK (Cisbio HTRF pERK), ASPC1 cells; type: cell-based; conditions: Homo sapiens, ASPC1, 3 h, AsPC-1 cells, 3 hr compound incubation
H727 cells = assay: Inhibition of KRas-mediated phosphorylation of ERK (Cisbio HTRF pERK), H727 cells; type: cell-based; conditions: Homo sapiens, NCI-H727, 3 h, 3 hr compound incubation
H358 cells = assay: Inhibition of KRas-mediated phosphorylation of ERK (Cisbio HTRF pERK), H358 cells; type: cell-based; conditions: Homo sapiens, NCI-H358, 3 h, 3 hr compound incubation
A549 cells = assay: Inhibition of KRas-mediated phosphorylation of ERK (Cisbio HTRF pERK), A549 cells; type: cell-based; conditions: Homo sapiens, A549, 3 h, 3 hr compound incubation
KRas G12C = KRas G12C (Homo sapiens, UniProt P01116, G12C); type: binding; conditions: TR-FRET displacement, read-out: Binding to KRas (IC50 nM) G12C
H460 cells = assay: Inhibition of KRas-mediated phosphorylation of ERK (Cisbio HTRF pERK), H460 cells; type: cell-based; conditions: Homo sapiens, NCI-H460, 3 h, 3 hr compound incubation
KRas WT = KRas WT (Homo sapiens, UniProt P01116); assay: KRas binding assay (TR-FRET displacement), KRas WT; conditions: TR-FRET displacement
MKN1 cells = assay: Inhibition of KRas-mediated phosphorylation of ERK (Cisbio HTRF pERK), MKN1 cells; type: cell-based; conditions: Homo sapiens
Method in brief: (§1)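 Cells were seeded on day 1 at 6,000 per well in RPMI containing 10% FBS before compound treatment and phospho-ERK detection.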

KRas G12V = KRas G12V (Homo sapiens, UniProt P01116, G12V); assay: biochemical; conditions: Binding to KRas (IC50 nM) G12V, TR-FRET displacement, KRas G12V
PSN1 cells = assay: Inhibition of KRas-mediated phosphorylation of ERK (Cisbio HTRF pERK), PSN1 cells; type: cell-based; conditions: Homo sapiens, PSN1, 3 h
Method in brief: as §1

KRas G12S = KRas G12S (Homo sapiens, UniProt P01116, G12S); type: binding; conditions: TR-FRET displacement, read-out: Binding to KRas (IC50 nM) G12S
[1] = MKN-1, 3 hr compound incubation
[2] = MKN-1, 3 hour compound incubation, Cisbio pERK HTRF
[3] = 3 hour compound incubation, Cisbio pERK HTRF

Sequence of KRas G12D (P01116 1-169 isoform P01116-2 G12D): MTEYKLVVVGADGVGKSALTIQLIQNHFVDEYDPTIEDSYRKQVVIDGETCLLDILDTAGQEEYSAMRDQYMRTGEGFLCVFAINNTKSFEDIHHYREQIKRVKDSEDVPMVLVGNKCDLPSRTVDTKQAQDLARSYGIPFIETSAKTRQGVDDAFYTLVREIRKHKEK
Sequence of KRas WT (P01116 1-169 isoform P01116-2): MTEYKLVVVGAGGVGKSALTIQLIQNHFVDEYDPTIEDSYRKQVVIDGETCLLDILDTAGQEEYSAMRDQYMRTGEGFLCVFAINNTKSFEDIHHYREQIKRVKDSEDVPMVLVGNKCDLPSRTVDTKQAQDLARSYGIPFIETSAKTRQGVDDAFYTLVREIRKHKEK
Sequence of KRas G12S (P01116 1-169 isoform P01116-2 G12S): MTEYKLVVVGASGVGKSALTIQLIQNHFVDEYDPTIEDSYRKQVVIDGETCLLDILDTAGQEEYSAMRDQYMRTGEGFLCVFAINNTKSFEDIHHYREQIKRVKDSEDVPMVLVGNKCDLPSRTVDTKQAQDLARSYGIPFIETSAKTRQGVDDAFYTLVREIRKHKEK
Sequence of KRas G12C (P01116 1-169 isoform P01116-2 G12C): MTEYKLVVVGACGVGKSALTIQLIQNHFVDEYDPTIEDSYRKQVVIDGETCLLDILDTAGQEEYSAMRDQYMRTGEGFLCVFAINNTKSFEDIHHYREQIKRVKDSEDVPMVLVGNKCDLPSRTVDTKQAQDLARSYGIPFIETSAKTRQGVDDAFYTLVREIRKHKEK
Sequence of KRas G12V (P01116 1-169 isoform P01116-2 G12V): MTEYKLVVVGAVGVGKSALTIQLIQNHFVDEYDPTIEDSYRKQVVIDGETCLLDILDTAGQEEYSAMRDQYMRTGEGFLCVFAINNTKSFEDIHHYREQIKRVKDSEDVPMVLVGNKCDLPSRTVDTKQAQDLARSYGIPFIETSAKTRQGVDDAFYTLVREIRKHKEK

| SMILES | IC50 (KRas G12D) | IC50 (KRas G12C) | IC50 (KRas WT) | IC50 (KRas G12V) | IC50 (KRas G12S) | IC50 (HCT116 cells; Cisbio pERK HTRF) | IC50 (ASPC1 cells; Cisbio pERK HTRF) | IC50 (H727 cells; Cisbio pERK HTRF) | IC50 (H358 cells; Cisbio pERK HTRF) | IC50 (A549 cells; Cisbio pERK HTRF) | IC50 (H460 cells; Cisbio pERK HTRF) | IC50 (MKN1 cells; [2]) | IC50 (PSN1 cells; [3]) | also measured |
| --- | --- | --- | --- | --- | --- | --- | --- | --- | --- | --- | --- | --- | --- | --- |
| C[C@@H]1C[C@@H]1c1c(Cl)cc(O)cc1N1CCc2c(nc(OC[C@@]34CCCN3C[C@H](F)C4)nc2N2CCC[C@]3(C2)NC(=O)NC3=O)C1 (stereo in doubt) [Example 653, (R)-7-(7-(3-chloro-5-hydroxy-2-(cis-2-methylcyclopropyl)phenyl)-2-(((2R,7aS)-2-fluorotetrahydro-1H-pyrrolizin-7a(5H)-yl)methoxy)-5,6,7,8-tetrahydropyrido[3,4-d]pyrimidin-4-yl)-1,3,7-triazaspiro[4.5]decane-2,4-dione] | < 2 nM | < 2 nM | < 2 nM | < 2 nM | < 2 nM | – | – | – | – | – | – | – | – | IC50 (HCT116 cells): 28 nM; IC50 (ASPC1 cells): 70 nM; IC50 (H727 cells): 60 nM; IC50 (H358 cells): 6 nM; IC50 (A549 cells): 17 nM; IC50 (H460 cells): 12 nM; IC50 (MKN1 cells; [1]): 2.4 nM; IC50 (PSN1 cells; 3 hr compound incubation): 131 nM |
| C[C@@H]1C[C@@H]1c1c(Cl)cc(O)cc1N1CCc2c(nc(OC[C@@]34CCCN3C[C@H](F)C4)nc2N2CCCn3nc(C(=O)N(C)C)cc3C2)C1 (stereo in doubt) [Example 656, 5-(7-(3-chloro-5-hydroxy-2-(cis-2-methylcyclopropyl)phenyl)-2-(((2R,7aS)-2-fluorotetrahydro-1H-pyrrolizin-7a(5H)-yl)methoxy)-5,6,7,8-tetrahydropyrido[3,4-d]pyrimidin-4-yl)-N,N-dimethyl-5,6,7,8-tetrahydro-4H-pyrazolo[1,5-a][1,4]diazepine-2-carboxamide] | < 2 nM | 2 nM | 5 nM | < 2 nM | 2 nM | – | – | – | – | – | – | – | – | IC50 (HCT116 cells): 1220 nM; IC50 (ASPC1 cells): 82 nM; IC50 (H727 cells): 100 nM; IC50 (H358 cells): 54 nM; IC50 (A549 cells): 294 nM; IC50 (H460 cells): 307 nM; IC50 (MKN1 cells; [1]): 4.5 nM; IC50 (PSN1 cells; 3 hr compound incubation): > 10000 nM |
| CCc1c(F)ccc2cc(O)cc(N3CCc4c(nc(OCC56CCCN5C/C(=C\F)C6)nc4N4CCC[C@@](C)(O)C4)C3)c12 (stereo partly drawn) [Example 574, (3R)-1-(7-(8-ethyl-7-fluoro-3-hydroxynaphthalen-1-yl)-2-(((Z)-2-(fluoromethylene)tetrahydro-1H-pyrrolizin-7a(5H)-yl)methoxy)-5,6,7,8-tetrahydropyrido[3,4-d]pyrimidin-4-yl)-3-methylpiperidin-3-ol] | < 2 nM | < 2 nM | < 2 nM | < 2 nM | < 2 nM | 18 nM | 13 nM | 25 nM | 5 nM | 16 nM | 12 nM | 0.4 nM | 442 nM | – |
| CCc1c(F)ccc2cc(O)cc(N3CCc4c(nc(OCC56CCCN5C/C(=C\F)C6)nc4N4C[C@@H]5C[C@H](C4)[C@H](O)C5)C3)c12 (stereo partly drawn) [Example 576, (1R,5R,6R)-3-(7-(8-ethyl-7-fluoro-3-hydroxynaphthalen-1-yl)-2-(((Z)-2-(fluoromethylene)tetrahydro-1H-pyrrolizin-7a(5H)-yl)methoxy)-5,6,7,8-tetrahydropyrido[3,4-d]pyrimidin-4-yl)-3-azabicyclo[3.2.1]octan-6-ol] | 4 nM | 3 nM | 3 nM | < 2 nM | < 2 nM | 137 nM | 88 nM | 57 nM | 49 nM | 61 nM | 57 nM | 5.8 nM | 2760 nM | – |
| CCc1c(F)ccc2cc(O)cc(N3CCc4c(nc(OCC56CCCN5C/C(=C\F)C6)nc4N4CCC[C@]5(C4)NC(=O)NC5=O)C3)c12 (stereo partly drawn) [Example 577, (5R)-7-(7-(8-ethyl-7-fluoro-3-hydroxynaphthalen-1-yl)-2-(((Z)-2-(fluoromethylene)tetrahydro-1H-pyrrolizin-7a(5H)-yl)methoxy)-5,6,7,8-tetrahydropyrido[3,4-d]pyrimidin-4-yl)-1,3,7-triazaspiro[4.5]decane-2,4-dione] | < 2 nM | < 2 nM | < 2 nM | < 2 nM | < 2 nM | 2 nM | 2 nM | 6 nM | 1 nM | 1 nM | 1 nM | 0.1 nM | 7 nM | – |
| CCc1c(F)ccc2cc(O)cc(N3CCc4c(nc(OCC56CCCN5C/C(=C\F)C6)nc4N4CCCn5nc(C(=O)N(C)C)cc5C4)C3)c12 (stereo not drawn) [Example 578, (Z)-5-(7-(8-ethyl-7-fluoro-3-hydroxynaphthalen-1-yl)-2-((2-(fluoromethylene)tetrahydro-1H-pyrrolizin-7a(5H)-yl)methoxy)-5,6,7,8-tetrahydropyrido[3,4-d]pyrimidin-4-yl)-N,N-dimethyl-5,6,7,8-tetrahydro-4H-pyrazolo[1,5-a][1,4]diazepine-2-carboxamide] | < 2 nM | < 2 nM | < 2 nM | < 2 nM | < 2 nM | 36 nM | 1 nM | 2 nM | 1 nM | 4 nM | 7 nM | 0.3 nM | 1040 nM | – |
| C=C1CN2CC(=C)CC2(COc2nc3c(c(N4C[C@@H]5C[C@H](C4)[C@H](O)C5)n2)CCN(c2cc(O)cc4ccc(F)c(CC)c24)C3)C1 [Example 579, (1R,5R,6R)-3-(2-((2,6-dimethylenetetrahydro-1H-pyrrolizin-7a(5H)-yl)methoxy)-7-(8-ethyl-7-fluoro-3-hydroxynaphthalen-1-yl)-5,6,7,8-tetrahydropyrido[3,4-d]pyrimidin-4-yl)-3-azabicyclo[3.2.1]octan-6-ol] | 7 nM | 4 nM | 4 nM | 2 nM | 3 nM | 968 nM | 699 nM | 513 nM | 204 nM | 168 nM | 227 nM | 18.3 nM | > 10000 nM | – |
| C=C1CN2CCCC2(COc2nc3c(c(N4CCC[C@@](C)(O)C4)n2)CCN(c2cc(O)cc4ccc(F)c(CC)c24)C3)C1 (stereo partly drawn) [Example 580, (3R)-1-(7-(8-ethyl-7-fluoro-3-hydroxynaphthalen-1-yl)-2-((2-methylenetetrahydro-1H-pyrrolizin-7a(5H)-yl)methoxy)-5,6,7,8-tetrahydropyrido[3,4-d]pyrimidin-4-yl)-3-methylpiperidin-3-ol] | < 2 nM | < 2 nM | < 2 nM | < 2 nM | < 2 nM | 71 nM | 16 nM | 71 nM | 14 nM | 26 nM | 17 nM | 1 nM | 405 nM | – |
| C=C1CN2CC(=C)CC2(COc2nc3c(c(N4CCC[C@@](C)(O)C4)n2)CCN(c2cc(O)cc4ccc(F)c(CC)c24)C3)C1 [Example 582, (R)-1-(2-((2,6-dimethylenetetrahydro-1H-pyrrolizin-7a(5H)-yl)methoxy)-7-(8-ethyl-7-fluoro-3-hydroxynaphthalen-1-yl)-5,6,7,8-tetrahydropyrido[3,4-d]pyrimidin-4-yl)-3-methylpiperidin-3-ol] | 3 nM | 2 nM | < 2 nM | < 2 nM | 2 nM | 219 nM | 79 nM | 204 nM | 40 nM | 86 nM | 63 nM | 3.1 nM | 2480 nM | – |
